Experimental data as given in patent publication US4658029A, “1-Hpyrazolo[3,4-b]pyridines” (Hoechst-Roussel Pharmaceuticals Inc., priority 1986, dated 1987).

What follows are molecules tested on 2-phenyl-1,4-benzoquinone-induced writhing (assay: 2-phenyl-1,4-benzoquinone-induced writhing test in mice (analgesic activity, PQW)). Details: 20 mg/kg, SC.
Assay type: in vivo
With `CCn1ncc2c3onc(-c4cccc(O)c4)c3cnc21` [6-Ethyl-3-(3-hydroxyphenyl)-6H-isoxazolo[5,4-d]pyrazolo[3,4-b]pyridine] the “Analgesic PQW, % decrease (phenylquinone writhing)” value (from here on “Analgesic PQW, % decrease”) was 48%.
With `CCn1ncc2c3onc(-c4ccccn4)c3cnc21` [6-Ethyl-3-(2-pyridyl)-6H-isoxazolo[5,4-d]pyrazolo[3,4-b]pyridine] the “Analgesic PQW, % decrease” value was 42%.
With `CCn1ncc2c3onc(-c4cccc(F)c4)c3cnc21` [6-Ethyl-3-(3-fluorophenyl)-6H-isoxazolo[5,4-d]pyrazolo[3,4-b]pyridine] the “Analgesic PQW, % decrease” value was 55%.
`CCn1ncc2c3onc(-c4ccc(F)cc4)c3cnc21` [6-Ethyl-3-(4-fluorophenyl)-6H-isoxazolo[5,4-d]pyrazolo[3,4-b]pyridine] was tested, and the “Analgesic PQW, % decrease” value was 31%.
In the case of “6-Ethyl-3-tolyl-6H-isoxazolo[5,4-d]pyrazolo[3,4-b]pyridine”, the “Analgesic PQW, % decrease” value is reported as 48%.

Same assay, conditions: Mus musculus, sc, prior art compound, read-out: ED50 (phenylquinone writhing)
`CCC(=O)O[C@](Cc1ccccc1)(c1ccccc1)[C@H](C)CN(C)C` [Propoxyphene, reference compound] was tested, and the ED50 was 3.9 mg/kg.

The molecules below were run on spontaneous hypertensive rat (assay: Antihypertensive activity in the spontaneous hypertensive rat (SHR), indirect tail cuff method). Details: 50 mg/kg, PO, treated orally for three days, drop measured on third day.
Assay type: in vivo
Protocol: The 6H-isoxazolo[5,4-d]pyrazolo[…] of formula I of the present invention are useful as antihypertensive agents due to their ability to depress blood pressure in mammals. Antihypertensive activity is measured in the spontaneous hypertensive rat by the indirect tail cuff method described in "Methods in Pharmacology", A. Schwartz, Ed., Vol. I, Appleton-Century Crofts, New York, N.Y., 1971, p. 135. In this procedure a group of five animals are treated orally for three days with the test compound in relation to a control group of the same number. The drop in blood pressure is measured on the third day following administration. The antihypertensive activities of some of the compounds, expressed as a decrease in mean arterial blood pressure (in mmHg), are given in Table I.
With `CCn1ncc2c3onc(-c4ccc(Cl)cc4)c3cnc21` [3-(4-Chlorophenyl)-6-ethyl-6H-isoxazolo[5,4-d]pyrazolo[3,4-b]pyridine] the “Antihypertensive SHR (decrease in mean arterial blood pressure)” value was 62 mmHg.
With `C[C@](N)(Cc1ccc(O)c(O)c1)C(=O)O` [alpha-Methyldopa, reference compound] the “Antihypertensive SHR (decrease in mean arterial blood pressure)” value was 40 mmHg.
`CCn1ncc2c3onc(-c4ccc(OC)cc4)c3cnc21` [6-Ethyl-3-(4-methoxyphenyl)-6H-isoxazolo[5,4-d]pyrazolo[3,4-b]pyridine] was tested, and the “Antihypertensive SHR (decrease in mean arterial blood pressure)” value was 31 mmHg.
In the case of `CCn1ncc2c3onc(-c4cccc(C)c4)c3cnc21` [6-Ethyl-3-(3-tolyl)-6H-isoxazolo[5,4-d]pyrazolo[3,4-b]pyridine], the “Antihypertensive SHR (decrease in mean arterial blood pressure)” value is reported as 33 mmHg.
